Experimental data from patent US20240252668A1, “ANTIBODY DRUG CONJUGATES AND METHODS FOR MAKING THEREOF” (Novartis AG, priority 2021, published 2024).
Where two headings read alike, the source gives them in different places. Starred links: 1 amine or outer side, 2 acyl side, 3 side chain; linkers in the order of their positions; H or OH if unused. Positions of bridges follow the written chain, without caps; N, C: chain ends. Non-standard residues stand in square brackets, D forms with d. Residues, ends and D or L forms follow the SMILES beside them. *: point of attachment. Leu(3R-OH,Nα-propionyl) = CCC(=O)N[C@H](C(=O)*)[C@H](O)C(C)C; X1 = CC(C)[C@@H](O[*:3])[C@H](N[*:1])C(=O)[*:2]; NMeT = CN[C@H](C(=O)O)[C@@H](C)O; dPhLac = O=C(O)[C@H](O)Cc1ccccc1; NMeA = CN[C@@H](C)C(=O)O; NMeDha = C=C(NC)C(=O)O

Legend:
[1] = tested on: A375 skin melanoma cell line (homozygous BRAF V600E); experiment: Cell proliferation assay (resazurin cell viability), A375 cell line; format: cell-based; conditions: Homo sapiens, A-375
In short: (§1)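 Cells seeded the night before, then treated 96 h at 37 °C in RPMI/10% FCS (A375 in DMEM/10% FCS); compounds 260 nM to 0.036 nM in ⅓ dilution steps, one compound 10000 nM to 1.52 nM. Viability read by resazurin addition after 96 h.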

[2] = Plasma incubation of compound (A1), human plasma, LC-MS/MS quantification; format: in vitro ADME; conditions: human plasma, 37° C.
Experimental: Plasma incubations and sample preparation: Compound (A1) was spiked at 5.00 μg/mL in PBS and pooled mixed gender mouse (CD-1), cynomolgus monkey and human plasma. Samples were incubated on a Thermomixer (Eppendorf) at 37° C. while shaking at 650 rpm. Aliquots of 50 μL (n=3) were drawn from each incubation tube following 0, 0.5, 1, 2, 4, 8 and 24 h of incubation. 50 μL of sample was quenched with 200 μL of acetonitrile, containing both generic internal standards, glybenclamide and warfarin, at 62.5 ng/mL. Samples were briefly vortexed and centrifuged for 20 min at 4000 rpm and 4° C. 200 μL of the supernatant was transferred into a clean 800 μL 96-well sample collection plate.
Quantification by LC-MS/MS: LC-MS/MS analysis was conducted with a Shimadzu Nexera UPLC coupled to AB Sciex QTRAP 6500 using the SRM acquisition mode (3 μL injected). Samples were analyzed using a ACE 3° C.18-PFP (3 μM, 2.1×50 mm column) at a column temperature of 65° C. The starting conditions were 97% H20 containing 0.1% formic acid and 3% CH3CN containing 0.1% formic acid. Quantification of compound (A1) and 5 was performed by MS-MRM (electrospray in positive mode, ion spray voltage: 5000 V, source temperature: 500° C., curtain gas: 25 psig, nebulizer gas: 60 psig, turbo ion spray gas: 40 psig, mass range: low, resolution Q1/Q3: unit, collision gas: medium, dwell time: 12 msec). Separate calibration curves were established with calibration standards of compounds (A1) and 5 at concentrations of 10.0, 5.00, 2.50, 1.00, 0.500, 0.100, 0.050 and 0.010 μg/mL respectively. Peak integration and quantification was conducted with the AB Sciex Analyst software (v.1.7) using the Analyst Classic algorithm. […]

[3] = tested on: MP41 uveal melanoma cell line (heterozygous GNA11 Q209L); experiment: Cell proliferation assay (resazurin cell viability), MP41 cell line; format: cell-based
In short: as §1

[4] = tested on: SK-MEL-30 skin melanoma cell line (heterozygous NRAS Q61K); experiment: Cell proliferation assay (resazurin cell viability), SK-MEL-30 cell line; format: cell-based; conditions: Homo sapiens
In short: as §1

SMILES: C=C1C(=O)N[C@@H](C)C(=O)N(C)[C@@H](C)C(=O)N[C@@H]([C@H](OC(=O)[C@@H](NC(=O)CC)[C@H](O)C(C)C)C(C)C)C(=O)N(C)[C@@H]([C@@H](C)OC)C(=O)O[C@H](C(C)C)[C@H](NC(C)=O)C(=O)O[C@H](Cc2ccccc2)C(=O)N1C [Compound (A1), FR900359] (Ac-[X1][dPhLac][NMeDha]A[NMeA][X1](Leu(3R-OH,Nα-propionyl))[NMeT](Me); ester 1-C)
- GI50 ([1]; A375 (GNAQ/11 wild type), 96 hours of treatment, read-out: GI50 by cell line, A375): > 0.26 µM
- GI50 ([1]; A375 cell line, average of Rep. 1 and 2, read-out: GI50 A375 Average): > 0.26 µM
- GI50 ([1]; A375 cell line, replicate 1, read-out: GI50 A375 Rep. 1): > 0.26 µM
- GI50 ([1]; A375 cell line, replicate 2, read-out: GI50 A375 Rep. 2): > 0.26 µM
- Concentration of (A1), Aliquot 1 ([2]; 0 h): 4.62 µg/mL
- Concentration of (A1), Aliquot 2 ([2]; 0 h): 4.35 µg/mL
- Concentration of (A1), Aliquot 3 ([2]; 0 h): 4.75 µg/mL
- Mean concentration of (A1) ([2]; 0 h): 4.57 µg/mL
- Concentration of (A1), Aliquot 1 ([2]; 0.5 h): 5.15 µg/mL
- Concentration of (A1), Aliquot 2 ([2]; 0.5 h): 5.10 µg/mL
- Concentration of (A1), Aliquot 3 ([2]; 0.5 h): 5.10 µg/mL
- Mean concentration of (A1) ([2]; 0.5 h): 5.12 µg/mL
- Concentration of (A1), Aliquot 1 ([2]; 1 h): 4.98 µg/mL
- Concentration of (A1), Aliquot 2 ([2]; 1 h): 4.58 µg/mL
- Concentration of (A1), Aliquot 3 ([2]; 1 h): 5.02 µg/mL
- Mean concentration of (A1) ([2]; 1 h): 4.86 µg/mL
- Concentration of (A1), Aliquot 1 ([2]; 2 h): 4.79 µg/mL
- Concentration of (A1), Aliquot 2 ([2]; 2 h): 5.13 µg/mL
- Concentration of (A1), Aliquot 3 ([2]; 2 h): 4.68 µg/mL
- Mean concentration of (A1) ([2]; 2 h): 4.87 µg/mL
- Concentration of (A1), Aliquot 1 ([2]; 4 h): 4.14 µg/mL
- Concentration of (A1), Aliquot 2 ([2]; 4 h): 4.35 µg/mL
- Concentration of (A1), Aliquot 3 ([2]; 4 h): 4.35 µg/mL
- Mean concentration of (A1) ([2]; 4 h): 4.28 µg/mL
- Concentration of (A1), Aliquot 1 ([2]; 8 h): 3.26 µg/mL
- Concentration of (A1), Aliquot 2 ([2]; 8 h): 3.66 µg/mL
- Concentration of (A1), Aliquot 3 ([2]; 8 h): 3.60 µg/mL
- Mean concentration of (A1) ([2]; 8 h): 3.51 µg/mL
- Concentration of (A1), Aliquot 1 ([2]; 24 h): 1.35 µg/mL
- Concentration of (A1), Aliquot 2 ([2]; 24 h): 1.43 µg/mL
- Concentration of (A1), Aliquot 3 ([2]; 24 h): 1.29 µg/mL
- Mean concentration of (A1) ([2]; 24 h): 1.36 µg/mL
- GI50 ([3]; MP41 (GNA11 Q209L), 96 hours of treatment, read-out: GI50 by cell line, MP41): 0.0002 µM
- GI50 ([3]; MP41 cell line, average of Rep. 1 and 2, read-out: GI50 MP41 Average): 0.0002 µM
- GI50 ([3]; MP41 cell line, replicate 1, read-out: GI50 MP41 Rep. 1): 0.00022 µM
- GI50 ([3]; MP41 cell line, replicate 2, read-out: GI50 MP41 Rep. 2): 0.00027 µM
- GI50 ([4]; SK-MEL-30 (GNAQ/11 wild type), 96 hours of treatment, read-out: GI50 by cell line, SK-MEL-30): > 0.26 µM
- GI50 ([4]; SK-MEL-30 cell line, average of Rep. 1 and 2, read-out: GI50 SK-MEL-30 Average): > 0.26 µM
- GI50 ([4]; SK-MEL-30 cell line, replicate 1, read-out: GI50 SK-MEL-30 Rep. 1): > 0.26 µM
- GI50 ([4]; SK-MEL-30 cell line, replicate 2, read-out: GI50 SK-MEL-30 Rep. 2): > 0.26 µM
